Patent publication US12582622B2, “Sodium oxybate to treat idiopathic hypersomnia” (priority 2020, dated 2026)

Key:
[1] = test system: narcolepsy; conditions: in vivo; cited from earlier work
[2] = test system: subjects with Idiopathic Hypersomnia; test: Study of the efficacy of sodium oxybate (Xyrem) oral solution: ESS, PGIc, IHSS (Example 2); assay type: in vivo, human; conditions: randomized withdrawal portion of the trial
Source text: (§1) This is a study of the efficacy and safety of sodium oxybate (Xyrem) oral solution in subjects with Idiopathic Hypersomnia. The study design is analogous to the study described in Example 1.
During the Open-label Treatment Titration and Optimization Period subjects will initiate sodium oxybate as either as a once or twice nightly dosing regimen at the discretion of the investigator. The dosing regimen of sodium oxybate may be adjusted as described in Example 1 until an optimally effective and tolerable dose regimen is established. The aim of the sodium oxybate dose titration and optimization is to maximize efficacy (reduction in IH symptoms, e.g., EDS, sleep inertia, and long sleep duration) while ensuring adequate nocturnal sleep and minimizing risk associated with safety and tolerability.
Subjects who have reached an optimized dosing regimen, and who have completed the Open label Treatment Titration and Optimization Period, will then enter the 2-week Stable Dose Period as described in Example 1.
Subjects who meet the randomization criteria at the end of the Stable Dose Period will be randomized to receive sodium oxybate at the stable dose and regimen or placebo at a volume and regimen equivalent to the sodium oxybate dose and regimen for 2 weeks. Randomization will be stratified by the subject's use of stimulant agent at baseline per the following baseline medication groups: 1) subjects not currently taking sodium oxybate but are taking a stimulant or alerting agent; or 2) subjects not currently taking sodium oxybate or a stimulant or alerting agent.
(§2) Subjects who complete the Double-blind Randomized Withdrawal Period will enter a 24-week Open-label Safety Extension Period as described in Example 1. A Safety Follow-up visit will occur 2 weeks after the Open-label Safety Extension Period (completion of study).

[3] = test system: subjects with Idiopathic Hypersomnia; test: Safety of sodium oxybate (Xyrem) oral solution (Example 2); set-up: species or system human; conditions: in vivo
Source text: as §1, §2

| Compound | REM latency [1] | signs and symptoms of narcolepsy (daytime sleepiness, cataplexy, sleep paralysis, hypnagogic hallucinations) [1] | sleep apnea [1] | total sleep time and REM sleep [1] | ESS score during randomized withdrawal [2] | IHSS during randomized withdrawal [2] | change in PGIc scores during randomized withdrawal [2] | overall safety profile [3] |
| --- | --- | --- | --- | --- | --- | --- | --- | --- |
| O=C(O)CCCO [GHB, gamma-hydroxybutyrate] | decreases | substantially reduces | reduces | increases | – | – | – | – |
| O=C(O)CCCO [sodium oxybate] | – | – | – | – | clinically meaningful maintenance of efficacy | clinically meaningful maintenance of efficacy | clinically meaningful maintenance of efficacy | consistent with that previously reported for sodium oxybate (Xyrem) |
